Measured values taken from US20250388544A1, “HETEROAROMATIC INHIBITORS OF ASTACIN PROTEINASES” (VIVORYON THERAPEUTICS N.V., priority 2019, published 2025).

Assays:
Format in all cases: biochemical
[1] = biological target: T1, hMMP 9 (Homo sapiens, UniProt P14780); assay: Residual enzyme activity of other metalloproteases; conditions: read-out: Residual enzyme activity MMP9; for remaining activity at 10 µM: 10 μM inhibitor; for remaining activity at 200 µM: 200 μM inhibitor
T1 construct: purchased R&D systems
T1 sequence (P14780 107-707 limits assumed): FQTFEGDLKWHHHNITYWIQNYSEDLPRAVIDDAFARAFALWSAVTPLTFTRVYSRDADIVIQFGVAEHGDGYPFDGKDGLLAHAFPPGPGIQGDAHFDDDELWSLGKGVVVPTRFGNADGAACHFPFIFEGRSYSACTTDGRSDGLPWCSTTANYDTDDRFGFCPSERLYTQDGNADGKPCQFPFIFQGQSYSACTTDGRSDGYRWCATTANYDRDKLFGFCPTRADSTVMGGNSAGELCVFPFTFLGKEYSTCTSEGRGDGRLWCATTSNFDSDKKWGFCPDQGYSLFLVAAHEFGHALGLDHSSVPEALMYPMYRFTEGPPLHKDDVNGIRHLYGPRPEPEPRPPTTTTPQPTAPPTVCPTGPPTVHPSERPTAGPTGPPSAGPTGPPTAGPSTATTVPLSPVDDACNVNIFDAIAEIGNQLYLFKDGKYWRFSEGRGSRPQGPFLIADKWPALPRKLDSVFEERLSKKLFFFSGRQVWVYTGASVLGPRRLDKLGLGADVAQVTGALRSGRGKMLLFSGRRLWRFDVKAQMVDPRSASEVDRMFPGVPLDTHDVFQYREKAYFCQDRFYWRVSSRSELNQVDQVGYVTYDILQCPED
Procedure: (§1) The determination of enzymatic activity was based on the cleavage of internally quenched peptide substrates. A typical assay of 250 μl total volume measured in black 96 well plates consisted of 100 μl buffer, 50 μl enzyme at a final concentration of 5e-8 M to 2e-10 M, 50 μl substrate (0.15 to 80 μM, in buffer, 0.5% DMSO) and 50 μl inhibitor solution (in buffer, 1% DMSO). In case of 125 μl assay volume (black 96 half area well plates) all volumes were cut in half. Enzymatic activity of ADAMs was measured in 384 well plates with 60 μl total assay volume consisting of 20 μl inhibitor, 20 μl buffer, 10 μl enzyme and 10 μl substrate.
(§2) MMPs were activated prior to measurement by APMA (p-aminophenylmercuric acetate) treatment according to manufacturer's instructions (R&D systems).

[2] = biological target: T2, hMMP 13 (Homo sapiens, UniProt P45452); assay: Residual enzyme activity of other metalloproteases; conditions: read-out: Residual enzyme activity MMP13; for remaining activity at 10 µM: 10 μM inhibitor; for remaining activity at 200 µM: 200 μM inhibitor
T2 construct: purchased R&D systems
Procedure: as §1, with “A” for “The determination of enzymatic activity was based on the cleavage of internally quenched peptide substrates. A”
as §2

[3] = biological target: T3, hMMP 2 (Homo sapiens, UniProt P08253); assay: Residual enzyme activity of other metalloproteases; conditions: read-out: Residual enzyme activity MMP2; for remaining activity at 10 µM: 10 μM inhibitor; for remaining activity at 200 µM: 200 μM inhibitor
T3 construct: purchased Abnova
T3 sequence (P08253 110-660): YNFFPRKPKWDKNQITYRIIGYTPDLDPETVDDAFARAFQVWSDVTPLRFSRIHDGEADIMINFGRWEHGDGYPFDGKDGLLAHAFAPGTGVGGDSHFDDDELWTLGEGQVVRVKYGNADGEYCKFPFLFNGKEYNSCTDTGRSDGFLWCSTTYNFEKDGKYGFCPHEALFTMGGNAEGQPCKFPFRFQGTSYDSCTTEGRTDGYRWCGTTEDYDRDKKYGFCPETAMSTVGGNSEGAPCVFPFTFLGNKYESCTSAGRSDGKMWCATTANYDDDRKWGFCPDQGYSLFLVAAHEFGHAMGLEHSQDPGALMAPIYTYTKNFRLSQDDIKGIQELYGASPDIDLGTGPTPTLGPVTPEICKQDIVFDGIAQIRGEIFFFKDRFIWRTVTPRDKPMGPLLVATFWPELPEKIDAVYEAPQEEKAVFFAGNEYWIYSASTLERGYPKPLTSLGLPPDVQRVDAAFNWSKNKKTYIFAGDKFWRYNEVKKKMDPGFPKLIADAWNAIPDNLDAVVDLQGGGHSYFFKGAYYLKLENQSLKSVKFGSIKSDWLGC
Procedure: as §1, with “A” for “The determination of enzymatic activity was based on the cleavage of internally quenched peptide substrates. A”
as §2

[4] = biological target: T4, hMeprin β (Homo sapiens, UniProt Q16820); assay: Enzymatic assay, quenched peptide substrate cleavage, method B; conditions: geometric mean (geometric SD factor in parentheses); for Ki: Morrison's equation, read-out: Meprin beta Ki(app); for IC50: read-out: Meprin beta IC50
T4 sequence (Q16820 62-701): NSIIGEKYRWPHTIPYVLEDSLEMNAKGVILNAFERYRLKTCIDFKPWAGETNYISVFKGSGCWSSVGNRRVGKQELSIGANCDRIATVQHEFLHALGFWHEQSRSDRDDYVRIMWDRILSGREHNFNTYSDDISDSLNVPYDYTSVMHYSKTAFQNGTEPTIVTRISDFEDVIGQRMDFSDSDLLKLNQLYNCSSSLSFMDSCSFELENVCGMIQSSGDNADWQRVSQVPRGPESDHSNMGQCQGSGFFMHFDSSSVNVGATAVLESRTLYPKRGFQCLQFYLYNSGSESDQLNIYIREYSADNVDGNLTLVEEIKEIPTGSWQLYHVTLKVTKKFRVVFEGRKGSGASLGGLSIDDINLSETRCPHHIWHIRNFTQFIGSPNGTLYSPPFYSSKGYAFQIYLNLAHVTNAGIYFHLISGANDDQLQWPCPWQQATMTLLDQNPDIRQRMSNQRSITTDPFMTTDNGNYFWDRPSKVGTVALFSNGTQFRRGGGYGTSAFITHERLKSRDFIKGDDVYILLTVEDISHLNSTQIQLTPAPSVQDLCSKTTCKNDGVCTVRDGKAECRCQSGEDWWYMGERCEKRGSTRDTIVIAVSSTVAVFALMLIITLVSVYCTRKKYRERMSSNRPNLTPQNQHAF
In short: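 Cleavage of internally quenched peptides was read at 340/420 nm and 30° C., with enzyme at 5e-8 to 2e-10 M and substrate at 0.15–80 μM. Inhibitor solutions contained 1% DMSO and substrate 0.5% DMSO. Method B gave Ki(app) values via Morrison's equation, with kinetics measured in at least duplicate on separate days.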

[5] = biological target: T5, hADAM 17 (Homo sapiens, UniProt P78536); assay: Residual enzyme activity of other metalloproteases; conditions: read-out: Residual enzyme activity ADAM17; for remaining activity at 10 µM: 10 μM inhibitor; for remaining activity at 200 µM: 200 μM inhibitor
T5 construct: purchased R&D systems
T5 sequence (P78536 215-824): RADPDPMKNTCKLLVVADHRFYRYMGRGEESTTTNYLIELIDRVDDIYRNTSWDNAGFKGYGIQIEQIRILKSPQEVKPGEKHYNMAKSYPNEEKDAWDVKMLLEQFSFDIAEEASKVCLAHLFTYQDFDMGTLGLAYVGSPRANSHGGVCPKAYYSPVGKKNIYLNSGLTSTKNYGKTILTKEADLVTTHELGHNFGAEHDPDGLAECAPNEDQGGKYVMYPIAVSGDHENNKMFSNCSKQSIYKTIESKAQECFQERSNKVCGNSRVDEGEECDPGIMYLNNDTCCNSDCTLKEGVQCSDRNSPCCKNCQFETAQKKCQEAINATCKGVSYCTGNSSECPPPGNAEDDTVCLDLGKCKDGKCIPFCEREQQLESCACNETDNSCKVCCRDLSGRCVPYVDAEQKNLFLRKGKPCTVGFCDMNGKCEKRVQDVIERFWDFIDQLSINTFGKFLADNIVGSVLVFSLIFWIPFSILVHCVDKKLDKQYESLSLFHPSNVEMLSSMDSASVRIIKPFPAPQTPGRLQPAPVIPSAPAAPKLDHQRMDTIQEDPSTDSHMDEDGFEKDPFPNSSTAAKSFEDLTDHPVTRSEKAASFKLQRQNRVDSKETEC
Procedure: as §1

[6] = biological target: T6, hADAM 10 (Homo sapiens, UniProt O14672); assay: Residual enzyme activity of other metalloproteases; conditions: read-out: Residual enzyme activity ADAM10; for remaining activity at 10 µM: 10 μM inhibitor; for remaining activity at 200 µM: 200 μM inhibitor
T6 construct: purchased R&D systems
T6 sequence (O14672 214-748): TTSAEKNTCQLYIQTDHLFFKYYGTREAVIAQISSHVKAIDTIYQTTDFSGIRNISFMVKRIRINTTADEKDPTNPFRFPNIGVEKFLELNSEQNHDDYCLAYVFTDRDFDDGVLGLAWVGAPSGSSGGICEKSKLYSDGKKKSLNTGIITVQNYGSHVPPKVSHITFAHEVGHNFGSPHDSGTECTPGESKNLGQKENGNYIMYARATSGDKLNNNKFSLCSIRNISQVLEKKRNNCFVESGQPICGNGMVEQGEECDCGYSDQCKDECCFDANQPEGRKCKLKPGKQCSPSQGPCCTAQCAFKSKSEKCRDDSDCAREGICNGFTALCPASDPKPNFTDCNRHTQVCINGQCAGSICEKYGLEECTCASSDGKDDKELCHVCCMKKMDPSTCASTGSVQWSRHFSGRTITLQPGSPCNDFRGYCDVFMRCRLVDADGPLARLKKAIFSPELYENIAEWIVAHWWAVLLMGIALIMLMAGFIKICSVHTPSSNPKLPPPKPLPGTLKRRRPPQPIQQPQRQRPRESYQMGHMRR
Procedure: as §1

remaining activity at 10 µM [1] | remaining activity at 200 µM [1] | remaining activity at 10 µM [2] | remaining activity at 200 µM [2] | remaining activity at 10 µM [3] | remaining activity at 200 µM [3] | Ki [4] | IC50 [4] | remaining activity at 10 µM [5] | remaining activity at 200 µM [5] | remaining activity at 10 µM [6] | remaining activity at 200 µM [6] | SMILES
80% | 30% | 86% | 22% | 85% | 24% | 9 nM | 9 nM | 67% | 9% | 91% | 43% | O=C(Cc1c(-c2ccccc2)nn(Cc2ccc(C(=O)O)cc2)c1-c1ccccc1)NO [Example 40, 4-[[4-(2-(Hydroxyamino)-2-oxo-ethyl]-3,5-diphenyl-1H-pyrazol-1-yl]methyl]benzoic acid]
86% | 39% | 88% | 28% | 66% | 17% | 0.42 nM | 0.44 nM | 68% | 5% | 104% | 61% | O=C(Cc1c(-c2cc(F)c(O)c(Cl)c2)n[nH]c1-c1ccccc1)NO [Example 54, 2-[3-(3-Chloro-5-fluoro-4-hydroxy-phenyl)-5-phenyl-1H-pyrazol-4-yl]ethanehydroxamic acid]
81% | 27% | 75% | 67% | 104% | 61% |  | 119 nM | 61% | 7% | 73% | 23% | O=C(Cc1c(-c2ccccc2)n[nH]c1-c1ccccc1)NO [Example 1, 2-(3,5-Diphenyl-1H-pyrazol-4-yl)ethanehydroxamic acid]
83% | 36% | 83% | 34% | 89% | 34% | 11 nM | 10 nM | 84% | 25% | 92% | 66% | O=C(Cc1c(-c2ccccc2)nn(Cc2cccc(C(=O)O)c2)c1-c1ccccc1)NO [Example 41, 3-[[4-[2-(Hydroxyamino)-2-oxo-ethyl]-3,5-diphenyl-1H-pyrazol-1-yl]methyl]benzoic acid]
96% | 68% | 102% | 72% | 89% | 46% | 1130 nM | 1140 nM | 92% | 56% | 87% | 76% | O=C(Cn1c(-c2ccccc2)nc2ccccc21)NO [Example 13, 2-(2-Phenylbenzimidazol-1-yl)ethanehydroxamic acid]

SMILES | remaining activity at 10 µM [1] | remaining activity at 200 µM [1] | remaining activity at 10 µM [2] | remaining activity at 200 µM [2] | remaining activity at 10 µM [3] | remaining activity at 200 µM [3] | Ki [4] | IC50 [4] | remaining activity at 10 µM [5] | remaining activity at 200 µM [5] | remaining activity at 10 µM [6] | remaining activity at 200 µM [6]
O=C(Cc1c(-c2cccc(C(=O)O)c2)n[nH]c1-c1ccc(Cl)c(O)c1F)NO [Example 63, 3-[5-(4-Chloro-2-fluoro-3-hydroxy-phenyl)-4-[2-(hydroxyamino)-2-oxo-ethyl]-1H-pyrazol-3-yl]benzoic acid] | 94% | 71% | 105% | 73% | 95% | 81% | 4 nM | 4 nM | 99% | 91% | 90% | 74%
O=C(Cc1c(-c2ccccc2)nn(Cc2ccc(Cl)c(O)c2F)c1-c1ccccc1)NO [Example 42, 2-[1-(4-Chloro-2-fluoro-3-hydroxybenzyl)-3,5-diphenyl-1H-pyrazol-4-yl]ethanehydroxamic acid] | 70% | 14% | 84% | 9% | 69% | 18% | 9 nM | 10 nM | 72% | 14% | 85% | 34%
COc1cccc(-c2n[nH]c(-c3ccccc3)c2CC(=O)NO)c1 [Example 47, 2-[3-(3-Methoxyphenyl)-5-phenyl-1H-pyrazol-4-yl]ethanehydroxamic acid] | 80% | 33% | 85% | 28% | 78% | 17% | 116 nM | 123 nM | 52% | 6% | 68% | 8%
